pIC50: −log10 of the molar value.
Columns and labels:
[1] = tested on: MDA-MB-231-luc cells; assay: Tumor suppression in breast cancer xenograft model; type: in vivo, NPG mice
Description: FIG. 14B is a schematic representation of the experimental protocol. Here, anesthetized 6-week-old […] NPG mice were inoculated with a 1:1 mix of Matrigel and 1×10^6 MDA-MB-231-luc cells into the mammary fat pad. […] Nuclei were stained with DAPI (blue), and the scale bar is 50 μm. Bar graphs represent the mean±SD, and statistical analyses were performed by one-way ANOVA with Dunnett's multiple comparison. *, **, and *** indicate P<0.05, P<0.01, and P<0.001, respectively. […]
All animal experiments were performed in accordance with IACUC guidelines (GIST-2019-040). For tumorigenesis experiments, anesthetized 6-week-old female NOD-scid Il2rg^−/− mice (NPG™, VITALSTAR) were inoculated in the mammary fat pad with 1×10^6 MDA-MB-231-luc cells in a volume of 100 μl (n=5˜6 for each group). After tumor cell inoculation, when the tumor volume reached approximately 100 mm^3, the mice were randomly divided into the following five groups: (i) control, (ii) low-dose paclitaxel (2 mg/kg), (iii) high-dose paclitaxel (10 mg/kg), (iv) AGM-330 (16.68 mg/kg or 8.34 mg/kg), and (v) AGM-330-PTX (19.05 mg/kg or 10.71 mg/kg). The tumor size was measured twice a week, and the tumor volume was calculated with the following formula:
For the bioluminescent imaging experiment, D-luciferin (150 mg/kg; PerkinElmer) was intraperitoneally injected into each mouse, and an IVIS 100 imaging system (Xenogen, Corporation, Alameda, CA) was used for bioluminescent monitoring. Mice were anesthetized with vaporized isoflurane (BK Pharm, Ilsan, Korea) and placed in an imaging chamber. After 10 min, each animal was imaged with an exposure time of 1 min. All bioluminescent image data were provided by Living Image software (version 4.5.2, PerkinElmer). Photons detected from tumors were converted to average radiance values (photon/see/cm^2/sr), which are quantitative data obtained from a region of intensity (ROI) and include the photons emitted by bioluminescent cells from an assigned rectangular area over the whole body of each mouse.
Following in vitro proliferation analysis on cancer lines, the present inventors investigated whether AGM-330t-PTX could be a potential therapeutic agent in vivo. The present inventors inoculated MDA-MB-231-luc cells into the mammary fat pad of NPG mice. After the subcutaneous tumors grew to 100 mm^3, comparative efficacy studies were performed by dividing the animals into five groups (n=5/group) treated with vehicle (PBS), AGM-330t (16.68 mg/kg), PTX (2 or 10 mg/kg, respectively) or AGM-330t-PTX (19.05 mg/kg) twice a week by tail vein injection (FIG. 14B). Tumor growth was monitored by measuring volumes twice a week with a caliber rule over the course of 3 weeks.
The present inventors also performed histological staining of the excised tumors, and an independent pathologist evaluated the slides.

[2] = Body weight and serum blood chemistry in xenograft mice
[3] = tested on: HCT-116; assay: Cytotoxicity of AGM-330-CPP fusion peptides; type: cell-based, Human; conditions: HCT-116, fusion peptide alone, Example 11
[4] = tested on: MCF-7; assay: Cytotoxicity of AGM-330-CPP fusion peptides; type: cell-based, Human; conditions: MCF-7, fusion peptide alone, Example 11

Row | SMILES | average tumor volume ([1]; 19.05 mg/kg twice a week, tail vein, n=5) | decrease of average tumor volume with respect to the same dose PTX ([1]; 19.05 mg/kg vs PTX 2 mg/kg) | final average tumor weight ([1]; 19.05 mg/kg, n=5) | apoptotic cell nuclei in excised tumors (TUNEL) ([1]; mouse, in vivo) | number of cancerous cells in excised tumors (H&E staining, Ki-67) ([1]; mouse, in vivo) | mouse body weights compared to vehicle (PBS) administration ([2]; AGM-330t-PTX 19.05 mg/kg, 3 weeks) | blood chemistry analysis (ALB, GOT, GPT, TP-PS, UA) ([2]; serum of xenografted mice) | pIC50 [3] | pIC50 [4]
1 | CSCC[C@H](NC(=O)[C@H](C)NC(=O)CNC(=O)[C@H](Cc1c[nH]cn1)NC(=O)[C@@H](N)CCCNC(=N)N)C(=O)N[C@H](C(=O)N[C@@H](Cc1ccc(O)cc1)C(=O)N[C@@H](CC(C)C)C(=O)N[C@@H](CCCCN)C(=O)NCCOCCOCCOCCOCCOCCOCCOCCOCCOCCOCCOCCOCCC(=O)NCCCC[C@H](NC(=O)CCOCCOCCOCCOCCOCCOCCOCCOCCOCCOCCOCCOCCNC(=O)[C@H](CCCCN)NC(=O)[C@H](CC(C)C)NC(=O)[C@H](Cc1ccc(O)cc1)NC(=O)[C@@H](NC(=O)[C@H](CCSC)NC(=O)[C@H](C)NC(=O)CNC(=O)[C@H](Cc1c[nH]cn1)NC(=O)[C@@H](N)CCCNC(=N)N)C(C)C)C(=O)NCCCC[C@H](NC(=O)[C@H](CCCCNC(=O)CCOCCOCCOCCOCCOCCOCCOCCOCCOCCOCCOCCOCCNC(=O)[C@H](CCCCN)NC(=O)[C@H](CC(C)C)NC(=O)[C@H](Cc1ccc(O)cc1)NC(=O)[C@@H](NC(=O)[C@H](CCSC)NC(=O)[C@H](C)NC(=O)CNC(=O)[C@H](Cc1c[nH]cn1)NC(=O)[C@@H](N)CCCNC(=N)N)C(C)C)NC(=O)CCOCCOCCOCCOCCOCCOCCOCCOCCOCCOCCOCCOCCNC(=O)[C@H](CCCCN)NC(=O)[C@H](CC(C)C)NC(=O)[C@H](Cc1ccc(O)cc1)NC(=O)[C@@H](NC(=O)[C@H](CCSC)NC(=O)[C@H](C)NC(=O)CNC(=O)[C@H](Cc1c[nH]cn1)NC(=O)[C@@H](N)CCCNC(=N)N)C(C)C)C(=O)N[C@@H](CSC1CC(=O)N(CCC(=O)O[C@@H](C(=O)O[C@H]2C[C@@]3(O)[C@@H](OC(=O)c4ccccc4)[C@@H]4[C@]5(OC(C)=O)CO[C@@H]5C[C@H](O)[C@@]4(C)C(=O)[C@H](OC(C)=O)C(=C2C)C3(C)C)[C@@H](NC(=O)c2ccccc2)c2ccccc2)C1=O)C(=O)O)C(C)C (some centres unmarked) [AGM-330t-PTX] | 807±90 mm^3 | approximately 52% | 1.3 ± 0.1 g | increase in apoptotic cell nuclei | reduction in the number of cancerous cells | not affected | no adverse signs of toxicity |  | 
2 | CC[C@H](C)[C@H](NC(=O)[C@H](CCCNC(=N)N)NC(=O)[C@H](CC(C)C)NC(=O)[C@@H](NC(=O)[C@H](CCCNC(=N)N)NC(=O)[C@H](CCSC)NC(=O)[C@@H](NC(=O)[C@@H](N)CCCNC(=N)N)[C@@H](C)CC)[C@@H](C)CC)C(=O)N[C@@H](CC(C)C)C(=O)N[C@@H](CCCCN)C(=O)N[C@@H](CC(C)C)C(=O)N[C@@H](C)C(=O)N[C@@H](CCCNC(=N)N)C(=O)NCCCC[C@H](NC(=O)[C@H](CCCNC(=N)N)NC(=O)[C@H](C)NC(=O)[C@H](CC(C)C)NC(=O)[C@H](CCCCN)NC(=O)[C@H](CC(C)C)NC(=O)[C@@H](NC(=O)[C@H](CCCNC(=N)N)NC(=O)[C@H](CC(C)C)NC(=O)[C@@H](NC(=O)[C@H](CCCNC(=N)N)NC(=O)[C@H](CCSC)NC(=O)[C@@H](NC(=O)[C@@H](N)CCCNC(=N)N)[C@@H](C)CC)[C@@H](C)CC)[C@@H](C)CC)C(=O)N[C@@H](CSSC[C@H](NC(=O)[C@H](CCCCNC(=O)CCOCCOCCOCCOCCOCCOCCNC(=O)[C@H](CCCCN)NC(=O)[C@H](CC(C)C)NC(=O)[C@H](Cc1ccc(O)cc1)NC(=O)[C@@H](NC(=O)[C@H](CCSC)NC(=O)[C@H](C)NC(=O)CNC(=O)[C@H](Cc1c[nH]cn1)NC(=O)[C@@H](N)CCCNC(=N)N)C(C)C)NC(=O)CCOCCOCCOCCOCCOCCOCCNC(=O)[C@H](CCCCN)NC(=O)[C@H](CC(C)C)NC(=O)[C@H](Cc1ccc(O)cc1)NC(=O)[C@@H](NC(=O)[C@H](CCSC)NC(=O)[C@H](C)NC(=O)CNC(=O)[C@H](Cc1c[nH]cn1)NC(=O)[C@@H](N)CCCNC(=N)N)C(C)C)C(=O)O)C(=O)O [AGM-330d-dCPP] |  |  |  |  |  |  |  | 5.26 | 5.38
3 | CC[C@H](C)[C@H](NC(=O)[C@H](CCCNC(=N)N)NC(=O)[C@H](CC(C)C)NC(=O)[C@@H](NC(=O)[C@H](CCCNC(=N)N)NC(=O)[C@H](CCSC)NC(=O)[C@@H](NC(=O)[C@@H](N)CCCNC(=N)N)[C@@H](C)CC)[C@@H](C)CC)C(=O)N[C@@H](CC(C)C)C(=O)N[C@@H](CCCCN)C(=O)N[C@@H](CC(C)C)C(=O)N[C@@H](C)C(=O)N[C@@H](CCCNC(=N)N)C(=O)NCCCC[C@H](NC(=O)[C@H](CCCNC(=N)N)NC(=O)[C@H](C)NC(=O)[C@H](CC(C)C)NC(=O)[C@H](CCCCN)NC(=O)[C@H](CC(C)C)NC(=O)[C@@H](NC(=O)[C@H](CCCNC(=N)N)NC(=O)[C@H](CC(C)C)NC(=O)[C@@H](NC(=O)[C@H](CCCNC(=N)N)NC(=O)[C@H](CCSC)NC(=O)[C@@H](NC(=O)[C@@H](N)CCCNC(=N)N)[C@@H](C)CC)[C@@H](C)CC)[C@@H](C)CC)C(=O)NCCCC[C@H](NC(=O)[C@H](CCCCNC(=O)[C@H](CCCNC(=N)N)NC(=O)[C@H](C)NC(=O)[C@H](CC(C)C)NC(=O)[C@H](CCCCN)NC(=O)[C@H](CC(C)C)NC(=O)[C@@H](NC(=O)[C@H](CCCNC(=N)N)NC(=O)[C@H](CC(C)C)NC(=O)[C@@H](NC(=O)[C@H](CCCNC(=N)N)NC(=O)[C@H](CCSC)NC(=O)[C@@H](NC(=O)[C@@H](N)CCCNC(=N)N)[C@@H](C)CC)[C@@H](C)CC)[C@@H](C)CC)NC(=O)[C@H](CCCNC(=N)N)NC(=O)[C@H](C)NC(=O)[C@H](CC(C)C)NC(=O)[C@H](CCCCN)NC(=O)[C@H](CC(C)C)NC(=O)[C@@H](NC(=O)[C@H](CCCNC(=N)N)NC(=O)[C@H](CC(C)C)NC(=O)[C@@H](NC(=O)[C@H](CCCNC(=N)N)NC(=O)[C@H](CCSC)NC(=O)[C@@H](NC(=O)[C@@H](N)CCCNC(=N)N)[C@@H](C)CC)[C@@H](C)CC)[C@@H](C)CC)C(=O)N[C@@H](CSSC[C@H](NC(=O)[C@H](CCCCNC(=O)[C@H](CCCCNC(=O)CCOCCOCCOCCOCCOCCOCCNC(=O)[C@H](CCCCN)NC(=O)[C@H](CC(C)C)NC(=O)[C@H](Cc1ccc(O)cc1)NC(=O)[C@@H](NC(=O)[C@H](CCSC)NC(=O)[C@H](C)NC(=O)CNC(=O)[C@H](Cc1c[nH]cn1)NC(=O)[C@@H](N)CCCNC(=N)N)C(C)C)NC(=O)CCOCCOCCOCCOCCOCCOCCNC(=O)[C@H](CCCCN)NC(=O)[C@H](CC(C)C)NC(=O)[C@H](Cc1ccc(O)cc1)NC(=O)[C@@H](NC(=O)[C@H](CCSC)NC(=O)[C@H](C)NC(=O)CNC(=O)[C@H](Cc1c[nH]cn1)NC(=O)[C@@H](N)CCCNC(=N)N)C(C)C)NC(=O)[C@H](CCCCNC(=O)CCOCCOCCOCCOCCOCCOCCNC(=O)[C@H](CCCCN)NC(=O)[C@H](CC(C)C)NC(=O)[C@H](Cc1ccc(O)cc1)NC(=O)[C@@H](NC(=O)[C@H](CCSC)NC(=O)[C@H](C)NC(=O)CNC(=O)[C@H](Cc1c[nH]cn1)NC(=O)[C@@H](N)CCCNC(=N)N)C(C)C)NC(=O)CCOCCOCCOCCOCCOCCOCCNC(=O)[C@H](CCCCN)NC(=O)[C@H](CC(C)C)NC(=O)[C@H](Cc1ccc(O)cc1)NC(=O)[C@@H](NC(=O)[C@H](CCSC)NC(=O)[C@H](C)NC(=O)CNC(=O)[C@H](Cc1c[nH]cn1)NC(=O)[C@@H](N)CCCNC(=N)N)C(C)C)C(=O)O)C(=O)O [AGM-330t-tCPP] |  |  |  |  |  |  |  | 5.42 | 5.42
